Source: BindingDB's records for doi:10.1016/s0196-9781(98)00023-0 (Hungarian Academy of Sciences, 1998)
pKi: −log10 of the molar value. “And” between values parts separate entries of the source, which are not always exact repeats. Identical values can stand only once. Non-standard residues stand in square brackets, D forms with d. Residues, ends and D or L forms follow the SMILES beside them. Tic = O=C(O)[C@@H]1Cc2ccccc2CN1

Assays:
Mu-type opioid receptor = Mu-type opioid receptor (Rattus norvegicus, UniProt P33535)
Mu-type opioid receptor, sequence (P33535 whole entry): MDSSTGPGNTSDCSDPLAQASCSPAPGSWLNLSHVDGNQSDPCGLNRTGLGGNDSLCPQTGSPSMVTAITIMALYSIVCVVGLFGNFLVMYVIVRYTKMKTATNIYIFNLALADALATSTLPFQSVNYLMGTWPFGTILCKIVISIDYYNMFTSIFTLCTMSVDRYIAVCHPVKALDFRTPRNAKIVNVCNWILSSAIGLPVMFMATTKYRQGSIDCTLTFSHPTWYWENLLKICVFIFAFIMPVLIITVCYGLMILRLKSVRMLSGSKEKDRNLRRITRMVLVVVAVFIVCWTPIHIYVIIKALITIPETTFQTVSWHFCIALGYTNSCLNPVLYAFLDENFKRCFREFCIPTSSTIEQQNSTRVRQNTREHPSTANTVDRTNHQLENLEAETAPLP

[1] = target: Delta-type opioid receptor (Rattus norvegicus, UniProt P33533)
Delta-type opioid receptor, sequence (P33533 whole entry): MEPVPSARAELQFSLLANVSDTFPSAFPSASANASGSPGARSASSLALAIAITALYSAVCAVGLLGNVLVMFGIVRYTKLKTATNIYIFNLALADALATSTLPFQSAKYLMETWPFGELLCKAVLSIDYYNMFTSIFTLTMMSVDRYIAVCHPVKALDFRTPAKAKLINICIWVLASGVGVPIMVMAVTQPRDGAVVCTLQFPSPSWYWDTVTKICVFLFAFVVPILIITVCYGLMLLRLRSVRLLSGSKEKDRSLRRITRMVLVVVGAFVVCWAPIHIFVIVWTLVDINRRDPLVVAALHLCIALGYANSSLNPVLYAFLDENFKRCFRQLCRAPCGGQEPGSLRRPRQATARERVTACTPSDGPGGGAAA

Compound	pKi (Mu-type opioid receptor)	pKi [1]
COc1cccc2c1[C@]13CCN(CC4CC4)C(C2)[C@]1(OC)CCC(=O)C3	8.34 and 8.14	
CC(C)C[C@H](NC(=O)[C@H](Cc1ccccc1)NC(=O)CNC(=O)[C@@H](CO)NC(=O)[C@@H](N)Cc1ccc(O)cc1)C(=O)N[C@H](C(=O)O)[C@@H](C)O [DSLET-OH]		8.13 and 8.06
Oc1ccc2c3c1OC1c4[nH]c5ccccc5c4CC4(O)[C@H](C2)N(CC2CC2)CCC314 (some centres undefined) [NALTRINDOLE]		7.97 and 7.59
N[C@@H](Cc1ccc(O)cc1)C(=O)N1Cc2ccccc2C[C@H]1C(=O)N[C@@H](Cc1ccccc1)C(=O)N[C@@H](Cc1ccccc1)C(=O)O [TIPP] (H-Y[Tic]FF-OH)		5.04 and 5.77
